From patent US20260317320A1, “C5AR1 ANTAGONISTS AND USES THEREOF” (Vanqua Bio, Inc., priority 2022, published 2026)

Columns and labels:
[1] = molecular target: T1, complement C5a receptor 1 (C5aR1) (Homo sapiens, UniProt P21730); assay: β-arrestin recruitment via C5aR1 activation in live CHO-K1 cells (PathHunter), antagonist mode; format: cell-based; conditions: antagonist mode; recombinant hC5a (EC90) as competing natural agonist; live CHO-K1 cells; read-out: [Antagonist] B-arrestin2 recruitment: Average IC50
T1 construct: β-galactosidase fragment (PathHunter enzyme complementation); host or cells: CHO-K1 (PathHunter CHO-K1 C5aR1 β-arrestin cell line)
T1 sequence (P21730 1-350): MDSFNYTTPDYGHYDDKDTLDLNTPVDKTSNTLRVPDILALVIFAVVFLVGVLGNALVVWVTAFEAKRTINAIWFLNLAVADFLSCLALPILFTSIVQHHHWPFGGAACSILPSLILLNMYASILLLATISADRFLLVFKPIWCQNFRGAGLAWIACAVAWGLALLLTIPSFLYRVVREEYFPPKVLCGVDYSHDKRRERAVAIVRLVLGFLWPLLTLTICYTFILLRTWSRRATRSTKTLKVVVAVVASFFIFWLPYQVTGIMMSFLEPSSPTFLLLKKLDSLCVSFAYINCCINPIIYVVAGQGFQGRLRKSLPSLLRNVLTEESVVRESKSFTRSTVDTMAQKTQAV
In short: (§1)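 β-arrestin recruitment to C5aR1 in CHO-K1 cells is detected by enzyme-fragment complementation. Antagonism is measured against recombinant hC5a at its EC90; agonism is measured with compound alone. Potencies are grouped into IC50 categories.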

[2] = molecular target: T1, complement C5a receptor 1 (C5aR1); assay: β-arrestin recruitment via C5aR1 activation in live CHO-K1 cells (PathHunter), agonist mode; format: cell-based
In short: as §1

SMILES: Cc1cnc2cc(C3CCN(c4cc(F)cnc4C)CC3)c(=O)n(Cc3nccnc3C(F)(F)F)c2n1 [compound 52, 7-(1-(5-Fluoro-2-methylpyridin-3-yl)piperidin-4-yl)-3-methyl-5-((3-(trifluoromethyl)pyrazin-2-yl)methyl)pyrido[2,3-b]pyrazin-6(5H)-one]
- IC50 [1]: > 100 µM
- [Agonist] B-arrestin2 recruitment: Average EC50 (nM) [2]: Non-Active

SMILES: COc1cnc2cc(C3CCN(c4c(C)cccc4F)CC3)c(=O)n(Cc3ncccc3C(F)(F)F)c2n1 [compound 54, 7-(1-(2-Fluoro-6-methylphenyl)piperidin-4-yl)-3-methoxy-5-((3-(trifluoromethyl)pyridin-2-yl)methyl)pyrido[2,3-b]pyrazin-6(5H)-one]
- IC50 [1]: > 100 µM
- [Agonist] B-arrestin2 recruitment: Average EC50 (nM) [2]: Non-Active

SMILES: Cc1cnc2c(cc(C3CCN(c4c(C)cccc4F)CC3)c(=O)n2Cc2ccccc2C(F)(F)F)n1 [compound 55, 7-(1-(2-Fluoro-6-methylphenyl)piperidin-4-yl)-2-methyl-5-(2-(trifluoromethyl)-benzyl)-pyrido[2,3-b]pyrazin-6(5H)-one]
- IC50 [1]: 0.5 to 5 µM
- [Agonist] B-arrestin2 recruitment: Average EC50 (nM) [2]: Non-Active

SMILES: Cc1cnc2cc(C3CCN(c4cc(F)cnc4C)CC3)c(=O)n(Cc3ncccc3C(F)(F)F)c2n1 [compound 56, 7-(1-(5-fluoro-2-methylpyridin-3-yl)piperidin-4-yl)-3-methyl-5-((3-(trifluoromethyl)-pyridin-2-yl)methyl)pyrido[2,3-b]pyrazin-6(5H)-one]
- IC50 [1]: 5 to 100 µM
- [Agonist] B-arrestin2 recruitment: Average EC50 (nM) [2]: Non-Active

SMILES: Cc1cccc(F)c1N1CCC(c2c(C)c3nccnc3n(Cc3ncccc3C(F)(F)F)c2=O)CC1 [compound 57, 7-(1-(2-Fluoro-6-methylphenyl)piperidin-4-yl)-8-methyl-5-((3-(trifluoromethyl)pyridin-2-yl)methyl)pyrido[2,3-b]pyrazin-6(5H)-one]
- IC50 [1]: < 0.5 µM
- [Agonist] B-arrestin2 recruitment: Average EC50 (nM) [2]: Non-Active

SMILES: COc1cnc2cc(C3CCN(c4c(C)cccc4F)CC3)c(=O)n(Cc3ccccc3C(F)(F)F)c2n1 [compound 58, 7-(1-(2-Fluoro-6-methylphenyl)piperidin-4-yl)-3-methoxy-5-(2-(trifluoromethyl)benzyl)pyrido[2,3-b]pyrazin-6(5H)-one]
- IC50 [1]: 0.5 to 5 µM
- [Agonist] B-arrestin2 recruitment: Average EC50 (nM) [2]: Non-Active

SMILES: Cc1cnc2cc(N3CCN(c4cc(F)cnc4C)CC3)c(=O)n(Cc3nccnc3C(F)(F)F)c2n1 [compound 59, 7-(4-(5-Fluoro-2-methylpyridin-3-yl)piperazin-1-yl)-3-methyl-5-((3-(trifluoromethyl)pyrazin-2-yl)methyl)pyrido[2,3-b]pyrazin-6(5H)-one]
- IC50 [1]: > 100 µM
- [Agonist] B-arrestin2 recruitment: Average EC50 (nM) [2]: Non-Active

SMILES: O=c1c(C2CCN(c3cnccc3C(F)(F)F)CC2)cc2nccnc2n1Cc1ncccc1C(F)(F)F [compound 60, 5-((3-(trifluoromethyl)pyridin-2-yl)methyl)-7-(1-(4-(trifluoromethyl)pyridin-3-yl)piperidin-4-yl)pyrido[2,3-b]pyrazin-6(5H)-one]
- IC50 [1]: < 0.5 µM
- [Agonist] B-arrestin2 recruitment: Average EC50 (nM) [2]: Non-Active

SMILES: Cc1ccnc(F)c1N1CCC(c2c(C)c3nccnc3n(Cc3ncccc3C(F)(F)F)c2=O)CC1 [compound 62, 7-(1-(2-Fluoro-4-methylpyridin-3-yl)piperidin-4-yl)-8-methyl-5-((3-(trifluoromethyl)pyridin-2-yl)methyl)pyrido[2,3-b]pyrazin-6(5H)-one]
- IC50 [1]: 0.5 to 5 µM
- [Agonist] B-arrestin2 recruitment: Average EC50 (nM) [2]: Non-Active

SMILES: Cc1cnc2c(C)c(C3CCN(c4c(C)ccnc4F)CC3)c(=O)n(Cc3nccnc3C(F)(F)F)c2n1 [compound 63, 7-(1-(2-Fluoro-4-methylpyridin-3-yl)piperidin-4-yl)-3,8-dimethyl-5-((3-(trifluoromethyl)pyrazin-2-yl)methyl)pyrido[2,3-b]pyrazin-6(5H)-one]
- IC50 [1]: 0.5 to 5 µM
- [Agonist] B-arrestin2 recruitment: Average EC50 (nM) [2]: Non-Active

SMILES: O=c1c(C2CCN(c3ccccc3C(F)(F)F)CC2)cc2nccnc2n1Cc1nccnc1C(F)(F)F [compound 64, 7-(1-(2-(Trifluoromethyl)phenyl)piperidin-4-yl)-5-((3-(trifluoromethyl)pyrazin-2-yl)methyl)pyrido[2,3-b]pyrazin-6(5H)-one]
- IC50 [1]: 0.5 to 5 µM
- [Agonist] B-arrestin2 recruitment: Average EC50 (nM) [2]: Non-Active

SMILES: COc1cnc2c(cc(C3CCN(c4c(C)cccc4F)CC3)c(=O)n2Cc2ncccc2C(F)(F)F)n1 [compound 65, 7-(1-(2-Fluoro-6-methylphenyl)piperidin-4-yl)-2-methoxy-5-((3-(trifluoromethyl)pyridin-2-yl)methyl)pyrido[2,3-b]pyrazin-6(5H)-one]
- IC50 [1]: 0.5 to 5 µM
- [Agonist] B-arrestin2 recruitment: Average EC50 (nM) [2]: Non-Active

SMILES: Cc1cnc2cc(C3CCN(c4c(C)cccc4F)CC3)c(=O)n(Cc3ncccc3OC(F)F)c2n1 [compound 66, 5-((3-(Difluoromethoxy)pyridin-2-yl)methyl)-7-(1-(2-fluoro-6-methylphenyl)piperidin-4-yl)-3-methylpyrido[2,3-b]pyrazin-6(5H)-one]
- IC50 [1]: < 0.5 µM
- [Agonist] B-arrestin2 recruitment: Average EC50 (nM) [2]: Non-Active

SMILES: Cc1cnc2cc(N3CCN(c4c(C)cccc4F)CC3)c(=O)n(Cc3ncccc3C(F)(F)F)c2n1 [compound 67, 7-(4-(2-Fluoro-6-methylphenyl)piperazin-1-yl)-3-methyl-5-((3-(trifluoromethyl)pyridin-2-yl)methyl)pyrido[2,3-b]pyrazin-6(5H)-one]
- IC50 [1]: < 0.5 µM
- [Agonist] B-arrestin2 recruitment: Average EC50 (nM) [2]: Non-Active

SMILES: Cc1cnc2cc(C3CCN(c4c(C)cccc4F)CC3)c(=O)n(Cc3ncccc3OC(F)(F)F)c2n1 [compound 68, 7-(1-(2-Fluoro-6-methylphenyl)piperidin-4-yl)-3-methyl-5-((3-(trifluoromethoxy)pyridin-2-yl)methyl)pyrido[2,3-b]pyrazin-6(5H)-one]
- IC50 [1]: < 0.5 µM
- [Agonist] B-arrestin2 recruitment: Average EC50 (nM) [2]: Non-Active

SMILES: Cc1cnc2cc(N3CCN(c4cc(F)cnc4C)CC3)c(=O)n(Cc3ncccc3C(F)(F)F)c2n1 [compound 69, 7-(4-(5-Fluoro-2-methylpyridin-3-yl)piperazin-1-yl)-3-methyl-5-((3-(trifluoromethyl)pyridin-2-yl)methyl)pyrido[2,3-b]pyrazin-6(5H)-one]
- IC50 [1]: > 100 µM
- [Agonist] B-arrestin2 recruitment: Average EC50 (nM) [2]: Non-Active

SMILES: O=c1c(C2CCN(c3cnccc3C(F)(F)F)CC2)cc2nccnc2n1Cc1nccnc1C(F)(F)F [compound 70, 5-((3-(Trifluoromethyl)pyrazin-2-yl)methyl)-7-(1-(4-(trifluoromethyl)pyridin-3-yl)piperidin-4-yl)pyrido[2,3-b]pyrazin-6(5H)-one]
- IC50 [1]: 0.5 to 5 µM
- [Agonist] B-arrestin2 recruitment: Average EC50 (nM) [2]: Non-Active

SMILES: O=c1c(C2CCN(c3cnccc3Cl)CC2)cc2nccnc2n1Cc1ncccc1C(F)(F)F [compound 71, 7-(1-(4-Chloropyridin-3-yl)piperidin-4-yl)-5-((3-(trifluoromethyl)pyridin-2-yl)methyl)-pyrido[2,3-b]pyrazin-6(5H)-one]
- IC50 [1]: 0.5 to 5 µM
- [Agonist] B-arrestin2 recruitment: Average EC50 (nM) [2]: Non-Active

SMILES: O=c1c(C2CCN(c3cccnc3F)CC2)cc2nccnc2n1Cc1ncccc1C(F)(F)F [compound 72, 7-(1-(2-Fluoropyridin-3-yl)piperidin-4-yl)-5-((3-(trifluoromethyl)pyridin-2-yl)methyl) pyrido[2,3-b]pyrazin-6(5H)-one]
- IC50 [1]: > 100 µM
- [Agonist] B-arrestin2 recruitment: Average EC50 (nM) [2]: Non-Active

SMILES: Cc1cnc2c(C)c(C3CCN(c4c(C)cccc4F)CC3)c(=O)n(Cc3nccnc3C(F)(F)F)c2n1 [compound 73, 7-(1-(2-Fluoro-6-methylphenyl)piperidin-4-yl)-3,8-dimethyl-5-((3-(trifluoromethyl)pyrazin-2-yl)methyl)pyrido[2,3-b]pyrazin-6(5H)-one]
- IC50 [1]: 0.5 to 5 µM
- [Agonist] B-arrestin2 recruitment: Average EC50 (nM) [2]: Non-Active

SMILES: Cc1c(C2CCN(c3cnccc3C(F)(F)F)CC2)c(=O)n(Cc2ncccc2F)c2nccnc12 [compound 86, 5-((3-Fluoropyridin-2-yl)methyl)-8-methyl-7-(1-(4-(trifluoromethyl)pyridin-3-yl)piperidin-4-yl)pyrido[2,3-b]pyrazin-6(5H)-one]
- IC50 [1]: 0.5 to 5 µM
- [Agonist] B-arrestin2 recruitment: Average EC50 (nM) [2]: Non-Active

SMILES: Cc1cccc(F)c1N1CCC(c2cc3nccnc3n(Cc3ncccc3OC(F)(F)F)c2=O)CC1 [compound 87, 7-(1-(2-Fluoro-6-methylphenyl)piperidin-4-yl)-5-((3-(trifluoromethoxy)pyridin-2-yl)methyl)pyrido[2,3-b]pyrazin-6(5H)-one]
- IC50 [1]: < 0.5 µM
- [Agonist] B-arrestin2 recruitment: Average EC50 (nM) [2]: Non-Active

SMILES: Cc1cccc(F)c1N1CCN(c2c(C)c3nccnc3n(Cc3ncccc3C(F)(F)F)c2=O)CC1 [compound 88, 7-(4-(2-Fluoro-6-methylphenyl)piperazin-1-yl)-8-methyl-5-((3-(trifluoromethyl)pyridin-2-yl)methyl)pyrido[2,3-b]pyrazin-6(5H)-one]
- IC50 [1]: < 0.5 µM
- [Agonist] B-arrestin2 recruitment: Average EC50 (nM) [2]: Non-Active

SMILES: Cc1cccc(F)c1C1CCN(c2cc3nccnc3n(Cc3nccnc3C(F)(F)F)c2=O)CC1 [compound 89, 7-(4-(2-Fluoro-6-methylphenyl)piperidin-1-yl)-5-((3-(trifluoromethyl)pyrazin-2-yl)methyl) pyrido[2,3-b]pyrazin-6(5H)-one]
- IC50 [1]: 5 to 100 µM
- [Agonist] B-arrestin2 recruitment: Average EC50 (nM) [2]: Non-Active
